# Columns and labels:
# Ndufs4 KO mice [1] = experiment: Microglia activation (Iba1 staining of whole mount retinas); type: in vivo, mouse; conditions: two weeks (P21-P35) intraperitoneal treatment
# Ndufs4 KO mice [2] = experiment: Starburst amacrine cell count (ChAT staining of whole retina); type: in vivo, mouse; conditions: two weeks (P21-P35) intraperitoneal injections
# Experimental: 20× confocal images of whole retina stained with ChAT (marker of starburst amacrine cells) from wild type (FIG. 22A), Ndusf4 KO vehicle treated (FIG. 22B), Ndufs4 KO papaverine treated (FIG. 22C), Ndufs4 KO zolpidem treated (FIG. 22D), and Ndufs4 KO rapamycin treated (FIG. 22E) are shown.
# (§1) Wild type and Ndufs4 knockout mice were placed in one of five groups: vehicle, papaverine (20 mg/kg), zolpidem (20 mg/kg), rapamycin (8 mg/kg), or idebenone (200 mg/kg). For papaverine, zolpidem, and rapamycin, drug was dissolved in DMSO which was diluted in 5% PEG-400/5% Tween-20 in PBS. Vehicle contained all components except for the drug. The solution was then sterile filtered and intraperitoneal injections were performed using a 30 gauge needle. Idebenone was administered as a jelly and consumed orally.
# [3] = test system: innate immune/inflammatory response in Ndufs4 KO retina; experiment: Retinal gene expression of innate immune and inflammatory markers after drug treatment (Example 3); type: in vivo, mouse; conditions: Ndufs4 KO mice; doses as in drug formulation
# Experimental: The graphs represent RNA expression of B2m (FIG. 21A), Tlr2 (FIG. 21B), Cxc110 (FIG. 21C), Cc15 (FIG. 21D), and Aif1 (FIG. 21E) in the wild type and Ndufs4 knockout retina. Bars represent mean delta Ct values normalized to housekeeping genes, Actb and Mapk1. Error bars represent standard error of the mean. Statistical significance was determined by two-tailed student's t test. * P<0.05, ** P<0.01, **** P<0.0001.
# as §1
# We have previously shown that inflammatory gene expression of Aif1, Tlr2, B2m, Cc15, and Cxc110 are all elevated in the Ndufs4 KO mouse compared to wild type by more than 3-fold, indicating an inflammatory pathomechanism of mitochondrial blindness (Yu et al., Proc Natl Acad Sci USA, 2015, 112(42): E5689-98). […] Papaverine, zolpidem, rapamycin, and idebenone were administered to Ndufs4 KO mice to determine whether their protection of vision (FIG. 20) was through an anti-inflammatory mechanism of action. […] Thus, papaverine, zolpidem, and rapamycin appear to protect mitochondrial loss of vision through an antiinflammatory mechanism.
# [4] = test system: permeabilized LHON mutant (11778 G>A) cells; experiment: Complex I-driven ATP synthesis, drug applied to permeabilized LHON mutant cells; type: cell-based; conditions: permeabilized cells (30 min) instead of intact cells (2 h); rotenone 0.03 μM
# Experimental: Cells were permeabilized with streptolysin O and mitochondrial complex I-driven ATP synthesis was measured in presence of complex I substrates (malate/pyruvate). […] Intact cells were permeabilized with streptolysin O and mitochondrial complex I-driven ATP synthesis was measured in presence of complex I substrates (malate/pyruvate).
# control healthy cybrid = experiment: Mitochondrial copy number (MT-TL1/B2M ratio), control cybrids; type: cell-based; conditions: control cells; 24 hrs exposure
# Experimental: (§2) FIGS. 14A-14C illustrate the effect of drugs on the mitochondrial copy number. Difference of mitochondrial copy number between 11778 (G>A) mutant and control cybrids (FIG. 14A). Effect of zolpidem and papaverine on the control healthy cybrid mitochondrial copy number (FIG. 14B) and 11778 (G>A) mutant cybrid mitochondrial copy number (FIG. 14C). Cells were treated with either vehicle or one of the drugs at specified concentration for 24 h. The cells were harvested after 24 h and the ratio between MT-TL1 and B2M was determined. Data is presented as average relative fold change±std. deviation from three independent observations. Statistical significance (p<0.05) is denoted by ‘*’ and was determined by one way ANOVA and Dunett's post hoc test.
# LHON cybrids (11778 G>A) = experiment: Complex I-driven ATP synthesis in rotenone-inhibited LHON mutant cybrids (luciferase-based, high-throughput screen and concentration-response); type: cell-based
# control cybrids = experiment: Papaverine response in rotenone-inhibited control cybrids; type: cell-based
# From the text: FIG. 19A depicts response to papaverine in control cybrids. FIG. 19B depicts response to papaverine in mutant cybrids.
# Ndufs4 knockout mice = experiment: Visual cliff test; type: in vivo, mouse; conditions: P21-P35 treatment; papaverine 20 mg/kg, zolpidem 20 mg/kg, rapamycin 8 mg/kg i.p.; idebenone 200 mg/kg oral
# [5] = test system: 11778 (G>A) mutant cybrid; experiment: Mitochondrial copy number (MT-TL1/B2M ratio), mutant cybrids; type: cell-based; conditions: LHON mutant cells [11778(G>A)]; 24 hrs exposure
# Experimental: as §2
smiles,measurement,setting,value
COc1ccc(Cc2nccc3cc(OC)c(OC)cc23)cc1OC [papaverine],microglia activation,Ndufs4 KO mice [1],significant inhibition of microglia activation
same,starburst amacrine cell loss,Ndufs4 KO mice [2],less cell loss than vehicle-treated Ndufs4 KO mice
same,"innate immune/inflammatory gene expression (B2m, Tlr2, Cxcl10, Ccl5, Aif1) in retina",[3],significantly inhibited a portion of the innate immune/inflammatory response
same,complex I driven ATP production in permeabilized cells,[4],inhibited complex I driven ATP production
same,ratio of mtDNA/nDNA,control healthy cybrid,did not significantly change the ratio of mtDNA/nDNA
same,fold induction at 10 µM,"LHON cybrids (11778 G>A); 20 h, read-out: Fold change of ATP synthesis rate greater than 2x Median Absolution Deviation",2.4
same,reversal of rotenone sensitivity of complex I-driven ATP synthesis,"LHON cybrids (11778 G>A); different concentrations of drug 22 h, then rotenone 0.03 μM 2 h",dose-dependently reversed the rotenone sensitivity
same,protective effect with short treatment of intact cells,LHON cybrids (11778 G>A); intact cells treated with papaverine and rotenone 0.03 μM for 2 hrs,protective effect of papaverine was observed
same,"concentration-dependent reversal of rotenone-induced ATP synthesis inhibition, comparison of the two hits",LHON cybrids (11778 G>A); papaverine vs zolpidem,stronger than Zolpidem
same,complex 1-dependent ATP synthesis in normal cells inhibited by rotenone,control cybrids,dose dependently stimulates complex 1-dependent ATP synthesis
same,visual function (median # edge detections),Ndufs4 knockout mice,visual function was preserved
same,ratio of mtDNA/nDNA,[5],did not significantly change the ratio of mtDNA/nDNA

# — patent US10792287B2, “Methods for treating mitochondrial diseases” (The Regents of the University of California, priority 2015, dated 2020)
